Results on one compound are retold here after US5240714A, “Non-digoxin-like Na^+, K^+ -ATPase inhibitory factor” (priority 1989, dated 1993).

The structures appear in SMILES notation.

For the assay, the system named is anti-digoxin antibody. Briefly: digoxin radioimmunoassay (cross-reactivity with anti-digoxin antibody). The assay is classed as binding. Particulars: at the doses tested. How it is done: Radioimmunoassay. Generally, a digoxin antibody covalently bound to the inner surface of polypropylene tubes was used, obtained from Immunochem (USA). Digoxin standards and samples were diluted 1:2 in 1.5M Tris-ClH, pH 7.5. ^125 I-digoxin (2000 μCi/μg) was used.
As stated previously, this cross reaction is not a necessary criteria for HHIF. However, this method is used to follow and evaluate digoxin-like substances in the exemplary purification procedures. An RIA commercial kit was used, purchased from Immunochem. Digoxin standards and sample preparations were diluted 1:2 in 1.5M Tris-ClH, pH 7.5. Digoxin antibodies were covalently bound to the inner surface of polypropylene tubes. After a 30 min. incubation at 20° C., tubes with sample plus I^125 -digoxin unbound radioactivity are discarded and the tubes counted by […]. Values of DLA are calculated by extrapolating from the standard curve constructed on semilogarithmic paper with plots of B/B. vs. concentration.
A radioimmunoassay method based on charcoal separation using a commercial antibody elicited in rabbit against digoxin is also used as described by Smith, T. W., et al. "Determination Of Therapeutic And Toxic Serum Digoxin Concentrations By Radioimmunoassay." The New England J Med. 1969;1212-1216.

With `C[C@@H]1O[C@@H](O[C@H]2C[C@@H](O)[C@]3(CO)[C@H]4[C@H](O)C[C@]5(C)[C@@H](C6=CC(=O)OC6)CC[C@]5(O)[C@@H]4CC[C@]3(O)C2)[C@H](O)[C@H](O)[C@H]1O` [ouabain], the “cross-reactivity with anti-digoxin antibody (digoxin immunoreactivity)” value was “weakly cross-reacted”.
